Measurements published in patent US20260007678A1, “COMBINATION OF ALLOSTERIC AND ORTHOSTERIC EGFR INHIBITORS FOR THE TREATMENT OF CANCER” (Hoffmann-La Roche Inc., priority 2022, published 2026).
Blank lines part the entries; values can stand above or below the compound they belong to.

Experiments:
[1] = In vitro metabolic stability, intrinsic clearance in hepatocytes; assay type: in vitro ADME; settings: primary pooled cryopreserved hepatocytes in suspension
Protocol: The in vitro metabolic stability was assessed in human and […] short-term hepatocytes suspensions. Primary pooled cryopreserved hepatocytes obtained from BioIVT (Westbury, NY, USA) were thawed and suspended in William's E medium supplemented with 10% fetal bovine serum. The suspended hepatocytes were pre-incubated at 37° C. (5% CO2) and reactions were initiated by adding the compound. Final assay conditions were 1 μM compound (final assay solvent concentration 0.01% DMSO), 1×10^6 hepatocytes/mL incubate. The mixtures were then incubated up to 2 hours at 37° C.′ (5% CO2). The reactions were stopped by placing samples on dry ice before storage at −80° C. until analysis by LC-MS/MS. The natural logarithm of the percentage initial drug concentration in the incubation samples was plotted against time and a linear regression analysis was applied using GraphPad Prism version 7.04 for Windows (GraphPad Software, La Jolla, CA) to define the slope. The in vitro hepatocyte intrinsic hepatocyte clearance rate (CLint) was calculated from the slope of the linear regression,-slope, with V representing the volume of the incubation in μL and N as the number of hepatocytes per incubation as detailed in Equation X: […]

EGFR^L858R = target: T1, EGFR^L858R (Homo sapiens, UniProt P00533, L858R); assay: HTRF cellular assay in human cancer cells H3255; assay type: cell-based; settings: read-out: IC50 H3255 EGFR LR
T1 construct: expressing WT EGFR, EGFR^L858R or EGFR^L858R/T790M; host or cells: NCI-H3255
T1 sequence (P00533 25-1210 L858R): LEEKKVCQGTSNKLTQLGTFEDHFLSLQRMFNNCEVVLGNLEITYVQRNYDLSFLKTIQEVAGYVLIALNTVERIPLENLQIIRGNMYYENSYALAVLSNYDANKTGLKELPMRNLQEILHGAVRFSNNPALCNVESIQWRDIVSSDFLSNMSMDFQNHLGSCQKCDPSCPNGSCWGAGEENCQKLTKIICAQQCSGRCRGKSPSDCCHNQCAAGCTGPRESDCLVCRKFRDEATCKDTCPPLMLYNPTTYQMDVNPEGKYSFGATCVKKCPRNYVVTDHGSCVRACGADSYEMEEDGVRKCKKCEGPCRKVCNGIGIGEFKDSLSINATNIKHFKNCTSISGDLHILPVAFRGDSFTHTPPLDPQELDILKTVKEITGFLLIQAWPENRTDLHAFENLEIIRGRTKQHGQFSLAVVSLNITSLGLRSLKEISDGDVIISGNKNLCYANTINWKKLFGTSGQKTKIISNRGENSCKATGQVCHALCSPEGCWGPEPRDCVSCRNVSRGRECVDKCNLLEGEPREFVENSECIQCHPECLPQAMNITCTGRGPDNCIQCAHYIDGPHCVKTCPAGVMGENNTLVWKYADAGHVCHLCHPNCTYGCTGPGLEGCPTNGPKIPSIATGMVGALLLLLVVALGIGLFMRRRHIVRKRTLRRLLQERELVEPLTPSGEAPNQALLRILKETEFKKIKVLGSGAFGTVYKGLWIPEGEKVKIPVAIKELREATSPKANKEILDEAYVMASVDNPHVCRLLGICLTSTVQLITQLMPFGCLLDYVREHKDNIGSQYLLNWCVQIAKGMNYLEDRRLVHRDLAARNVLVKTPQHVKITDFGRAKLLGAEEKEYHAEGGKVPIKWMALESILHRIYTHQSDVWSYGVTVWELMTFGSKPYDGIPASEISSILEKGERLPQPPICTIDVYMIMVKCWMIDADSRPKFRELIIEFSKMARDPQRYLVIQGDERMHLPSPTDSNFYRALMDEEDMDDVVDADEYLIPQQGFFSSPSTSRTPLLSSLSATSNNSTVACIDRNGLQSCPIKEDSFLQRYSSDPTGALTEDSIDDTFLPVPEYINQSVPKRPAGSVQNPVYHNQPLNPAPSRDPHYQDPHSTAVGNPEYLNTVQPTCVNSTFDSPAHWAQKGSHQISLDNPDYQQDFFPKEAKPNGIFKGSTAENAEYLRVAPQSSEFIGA
Protocol: (§1) NCI-H3255 cells were obtained from the NCI (#CVCL_6831). Cells were maintained in a humidified incubator at 37° C. and 5% CO2. […] Verification of cell line identities and absence of cross-contaminations by other cell lines was performed through Short Tandem Repeats-PCR analysis (only human cell lines) and MALDI-TOF analysis. […] All cell lines were used for no more than 20 passages after thawing for all described experiments.
Control wells with medium only were also prepared. […] Plates were incubated at 37° C. for 4 hours. […] The cells were eventually lysed in HTRF lysis buffer provided by the kit (see below) and stored at −80° C. until further use. HTRF assay for pEGFR (CisBio #64EG1PEH) or pERK (CisBio #64AERPEH) was then performed according to the manufacturer's instructions.

EGFR^L858R/T790M = target: T2, EGFR^L858R/T790M (Homo sapiens, UniProt P00533, L858R/T790M); assay: HTRF cellular assay in human cancer cells H1975; assay type: cell-based; settings: read-out: IC50 H1975 EGFR LRTM
T2 construct: expressing WT EGFR, EGFR^L858R or EGFR^L858R/T790M; host or cells: NCI-H1975
T2 sequence (P00533 25-1210 T790M/L858R): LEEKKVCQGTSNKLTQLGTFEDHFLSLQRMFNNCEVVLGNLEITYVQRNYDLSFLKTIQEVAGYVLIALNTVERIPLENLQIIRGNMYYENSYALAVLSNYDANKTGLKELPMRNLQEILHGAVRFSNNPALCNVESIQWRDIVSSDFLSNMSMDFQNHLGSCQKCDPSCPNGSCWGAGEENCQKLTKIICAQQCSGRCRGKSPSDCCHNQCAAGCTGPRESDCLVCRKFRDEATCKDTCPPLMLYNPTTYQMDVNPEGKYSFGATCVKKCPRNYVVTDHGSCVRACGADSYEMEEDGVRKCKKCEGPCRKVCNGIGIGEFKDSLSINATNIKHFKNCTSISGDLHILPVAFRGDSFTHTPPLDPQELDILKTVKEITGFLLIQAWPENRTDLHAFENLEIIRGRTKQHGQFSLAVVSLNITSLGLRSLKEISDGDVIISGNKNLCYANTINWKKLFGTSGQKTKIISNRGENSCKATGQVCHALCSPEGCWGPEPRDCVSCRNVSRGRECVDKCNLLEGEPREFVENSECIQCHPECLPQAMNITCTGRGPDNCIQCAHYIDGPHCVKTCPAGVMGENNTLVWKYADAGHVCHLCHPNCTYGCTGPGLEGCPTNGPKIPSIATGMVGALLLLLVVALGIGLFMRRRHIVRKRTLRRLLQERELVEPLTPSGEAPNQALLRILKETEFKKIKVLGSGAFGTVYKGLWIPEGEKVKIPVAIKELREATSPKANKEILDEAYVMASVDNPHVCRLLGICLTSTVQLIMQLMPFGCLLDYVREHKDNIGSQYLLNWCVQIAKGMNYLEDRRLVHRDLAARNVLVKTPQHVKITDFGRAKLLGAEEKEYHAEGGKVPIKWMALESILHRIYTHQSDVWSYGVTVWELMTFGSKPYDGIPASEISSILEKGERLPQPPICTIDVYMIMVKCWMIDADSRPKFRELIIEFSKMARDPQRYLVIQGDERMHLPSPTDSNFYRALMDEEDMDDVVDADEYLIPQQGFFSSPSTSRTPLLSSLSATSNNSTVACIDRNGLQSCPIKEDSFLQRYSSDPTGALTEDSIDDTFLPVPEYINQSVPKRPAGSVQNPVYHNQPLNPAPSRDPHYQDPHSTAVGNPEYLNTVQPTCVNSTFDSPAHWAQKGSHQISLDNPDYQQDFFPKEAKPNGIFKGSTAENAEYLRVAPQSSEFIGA

[2] = target: T3, EGFR kinase domain (L858R) (Homo sapiens, UniProt P00533, L858R); assay: Binding kinetics measured by stopped-flow fluorescence
T3 construct: osimertinib reacts faster with the EGFR kinase domain (L858R)
T3 sequence (P00533 712-979 L858R limits assumed): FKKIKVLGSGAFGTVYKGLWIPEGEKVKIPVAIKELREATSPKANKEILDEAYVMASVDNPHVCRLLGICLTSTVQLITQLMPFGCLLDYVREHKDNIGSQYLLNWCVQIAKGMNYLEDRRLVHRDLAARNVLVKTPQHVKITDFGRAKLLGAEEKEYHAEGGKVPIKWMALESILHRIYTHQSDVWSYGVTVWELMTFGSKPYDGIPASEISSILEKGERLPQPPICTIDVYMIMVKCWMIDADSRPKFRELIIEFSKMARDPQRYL
Description: FIG. 3 (A) Binding kinetics measured by stopped-flow fluorescence. […].

EGFR WT [3] = target: T4, EGFR WT (Homo sapiens, UniProt P00533); assay: HTRF cellular assay in human cancer cells H2073; assay type: cell-based; set-up: expressing WT EGFR; host or cells: NCI-H2073; settings: EGF 25 ng/ml
T4 sequence (P00533 25-1210): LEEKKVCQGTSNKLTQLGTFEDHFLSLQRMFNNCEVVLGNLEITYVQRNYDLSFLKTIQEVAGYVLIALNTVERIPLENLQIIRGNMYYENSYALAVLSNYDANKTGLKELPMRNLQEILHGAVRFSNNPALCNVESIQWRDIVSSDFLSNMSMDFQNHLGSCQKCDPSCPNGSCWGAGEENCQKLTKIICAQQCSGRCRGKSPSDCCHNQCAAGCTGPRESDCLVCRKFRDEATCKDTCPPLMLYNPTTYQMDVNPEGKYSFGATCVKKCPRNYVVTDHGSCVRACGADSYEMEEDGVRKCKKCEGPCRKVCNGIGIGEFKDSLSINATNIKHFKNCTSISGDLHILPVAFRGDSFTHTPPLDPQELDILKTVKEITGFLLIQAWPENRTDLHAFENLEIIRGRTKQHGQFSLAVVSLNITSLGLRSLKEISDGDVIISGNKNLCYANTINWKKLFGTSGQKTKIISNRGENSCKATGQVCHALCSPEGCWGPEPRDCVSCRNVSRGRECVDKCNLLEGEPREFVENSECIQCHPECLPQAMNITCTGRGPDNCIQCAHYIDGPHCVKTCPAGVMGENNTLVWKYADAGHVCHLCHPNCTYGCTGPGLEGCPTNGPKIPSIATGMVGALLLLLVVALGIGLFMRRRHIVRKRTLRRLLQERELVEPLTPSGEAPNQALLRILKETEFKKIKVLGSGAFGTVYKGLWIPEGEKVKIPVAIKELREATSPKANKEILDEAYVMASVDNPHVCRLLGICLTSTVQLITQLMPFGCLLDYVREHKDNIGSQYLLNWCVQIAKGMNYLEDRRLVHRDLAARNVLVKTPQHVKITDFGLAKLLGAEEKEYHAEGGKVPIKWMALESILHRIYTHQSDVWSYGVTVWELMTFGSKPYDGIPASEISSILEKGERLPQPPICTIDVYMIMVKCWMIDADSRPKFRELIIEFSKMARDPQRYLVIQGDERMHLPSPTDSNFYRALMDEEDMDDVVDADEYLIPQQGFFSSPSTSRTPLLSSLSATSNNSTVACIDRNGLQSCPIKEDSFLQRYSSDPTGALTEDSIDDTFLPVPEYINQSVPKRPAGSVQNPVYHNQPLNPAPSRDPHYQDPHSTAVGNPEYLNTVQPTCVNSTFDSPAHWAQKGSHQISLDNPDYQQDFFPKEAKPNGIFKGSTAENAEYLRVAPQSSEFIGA

[4] = tested on: Ba/F3 EGFR^L858R/C797S allograft; assay: In vivo efficacy, Ba/F3 EGFR^L858R/C797S allograft; set-up: species or system mice; settings: Example 6 at 10 mpk, Example 3 at 30 mpk, BID po
[5] = target: Ba/F3 cell lines stably expressing EGFR^L858R/C797S (Homo sapiens, UniProt P00533, C797S/L858R, cells depend on it); assay: Cell viability assay (cell titer glo); assay type: cell-based; settings: 72 hours, first value of IC50/IC90
[6] = tested on: NCI-H1975 NSCLC-derived tumors (EGFR^L858R/T790M xenograft); assay: In vivo efficacy, NCI-H1975 xenograft; settings: alone and in combination with osimertinib, mice
EGFR WT [7] = target: T4, EGFR WT; assay: HTRF cellular assay in human cancer cells A431; assay type: cell-based; set-up: expressing WT EGFR, EGFR^L858R or EGFR^L858R/T790M; #CRL-1555 (A431); host or cells: NCI-H2073; A431; settings: EGF 25 ng/ml
[8] = target: Ba/F3 cell lines stably expressing EGFR^L858R/T790M/C797S (Homo sapiens, UniProt P00533, T790M/C797S/L858R, cells depend on it); assay: Cell viability assay (cell titer glo); assay type: cell-based
Chain of Ba/F3 cell lines stably expressing EGFR^L858R/T790M/C797S (P00533 whole entry T790M/C797S/L858R): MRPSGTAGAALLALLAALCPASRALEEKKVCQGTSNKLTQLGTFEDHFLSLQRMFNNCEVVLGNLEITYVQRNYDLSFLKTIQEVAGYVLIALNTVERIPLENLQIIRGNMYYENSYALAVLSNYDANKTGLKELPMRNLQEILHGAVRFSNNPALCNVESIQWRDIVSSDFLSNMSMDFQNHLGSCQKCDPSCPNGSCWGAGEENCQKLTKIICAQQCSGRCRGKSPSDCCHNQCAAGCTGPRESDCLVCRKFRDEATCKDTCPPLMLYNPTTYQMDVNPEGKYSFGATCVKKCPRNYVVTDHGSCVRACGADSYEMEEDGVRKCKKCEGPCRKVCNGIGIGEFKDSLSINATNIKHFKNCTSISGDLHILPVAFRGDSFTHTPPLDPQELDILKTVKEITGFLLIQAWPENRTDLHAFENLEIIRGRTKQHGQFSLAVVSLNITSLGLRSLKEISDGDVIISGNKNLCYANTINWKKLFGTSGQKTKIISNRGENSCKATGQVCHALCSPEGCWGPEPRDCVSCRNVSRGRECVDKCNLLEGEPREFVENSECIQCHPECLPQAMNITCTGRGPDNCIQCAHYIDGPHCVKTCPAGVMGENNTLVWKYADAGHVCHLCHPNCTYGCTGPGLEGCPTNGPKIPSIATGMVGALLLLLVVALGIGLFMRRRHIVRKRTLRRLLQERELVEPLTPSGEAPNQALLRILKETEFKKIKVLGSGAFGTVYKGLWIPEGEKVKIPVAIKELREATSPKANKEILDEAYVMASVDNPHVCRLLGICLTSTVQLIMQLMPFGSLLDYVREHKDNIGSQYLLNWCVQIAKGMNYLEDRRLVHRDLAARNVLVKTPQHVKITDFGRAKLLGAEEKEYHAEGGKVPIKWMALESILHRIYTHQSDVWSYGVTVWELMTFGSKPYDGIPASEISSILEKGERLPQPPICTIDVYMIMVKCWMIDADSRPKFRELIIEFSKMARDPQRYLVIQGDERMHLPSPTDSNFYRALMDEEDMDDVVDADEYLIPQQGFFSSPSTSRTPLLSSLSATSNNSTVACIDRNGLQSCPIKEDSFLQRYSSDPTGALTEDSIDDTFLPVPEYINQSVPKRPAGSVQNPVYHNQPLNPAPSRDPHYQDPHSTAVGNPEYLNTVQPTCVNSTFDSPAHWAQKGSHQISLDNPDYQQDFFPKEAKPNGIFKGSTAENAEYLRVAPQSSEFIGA
Protocol: as §1
Plates were incubated for 72 hours at 37° C. After treatment with compounds, 25 μl/well CellTiter-Glo 2.0 reagent (Promega #G9243) were added and plates were incubated for 10 min at RT and luminescence was quantified according to the manufacturer's protocol.

hepatocyte CLint at 1 μM ([1]; human): 3.5 µL/min/1e6 cells | hepatocyte CLint at 1 μM ([1]; mouse): 16 µL/min/1e6 cells | IC50 (EGFR^L858R): 0.016 µM | IC50 (EGFR^L858R/T790M): 0.007 µM | increase of the residence time of osimertinib ([2]; global fitting of the kinetic data, osimertinib in presence of the allosteric inhibitor): around 120 fold | reaction of osimertinib with the EGFR kinase domain (L858R) in presence of the allosteric inhibitor ([2]; stopped-flow fluorescence): reacts faster | IC50 (EGFR WT [3]): ~2 µM
Compound: O=C(Nc1nccs1)C(c1ncn2c1C[C@@H](F)C2)n1cc2c(Cl)cc(-c3ccc(N4CCOCC4)cc3)c(Cl)c2n1 (stereo partly drawn) [Example 1, 2-[4,7-Dichloro-6-(4-morpholinophenyl)indazol-2-yl]-2-[(6R)-6-fluoro-6,7-dihydro-5H-pyrrolo[1,2-c]imidazol-1-yl]-N-thiazol-2-yl-acetamide]

hepatocyte CLint at 1 μM ([1]; human): 6.1 µL/min/1e6 cells | hepatocyte CLint at 1 μM ([1]; mouse): 21 µL/min/1e6 cells
Compound: Cc1c(-c2ccc(N3CCOCC3)cc2)cc(C(F)F)c2cn(C(C(=O)Nc3nccs3)c3ncn4c3C[C@@H](F)C4)nc12 (stereo partly drawn) [Example 2, 2-[4-(Difluoromethyl)-7-methyl-6-(4-morpholinophenyl)indazol-2-yl]-2-[(6R)-6-fluoro-6,7-dihydro-5H-pyrrolo[1,2-c]imidazol-1-yl]-N-thiazol-2-yl-acetamide]

hepatocyte CLint at 1 μM ([1]; human): 5.9 µL/min/1e6 cells | hepatocyte CLint at 1 μM ([1]; mouse): 25 µL/min/1e6 cells
Compound: Cc1c(-c2ccc(N3CCOCC3)cc2)cc(C(F)F)c2cn(C(C(=O)Nc3nccs3)c3ncn4c3CCC43CC3)nc12 (stereo not shown) [Example 3, 2-[4-(Difluoromethyl)-7-methyl-6-(4-morpholinophenyl)indazol-2-yl]-2-spiro[6,7-dihydropyrrol[1,2-c]imidazole-5,1′-cyclopropane]-1-yl-N-thiazol-2-yl-acetamide]
changes in body weight [4]: No significant changes in body weight

Compound: O=C(Nc1nccs1)C(c1ncn2c1CCC2)n1cc2c(F)cc(C#Cc3ccc(CN4CCC(O)CC4)cc3)cc2n1 (stereo not shown) [Example 4, 2-(6,7-Dihydro-5H-pyrrolo[1,2-c]imidazol-1-yl)-2-(4-fluoro-6-((4-((4-hydroxypiperidin-1-yl)methyl)phenyl)ethynyl)-2H-indazol-2-yl)-N-(thiazol-2-yl)acetamide]
GI50 [5]: 0.8 µM

hepatocyte CLint at 1 μM ([1]; human): 2.4 µL/min/1e6 cells | hepatocyte CLint at 1 μM ([1]; mouse): 36 µL/min/1e6 cells
Compound: Cc1c(C#Cc2ccc(CN3CCC(CO)CC3)cc2)cc(C(F)F)c2cn(C(C(=O)Nc3nccs3)c3ncn4c3CCC4)nc12 (stereo not shown) [Example 5, 2-[4-(Difluoromethyl)-6-[2-[4-[[4-(hydroxymethyl)-1-piperidyl]methyl]phenyl]ethynyl]-7-methyl-indazol-2-yl]-2-(6,7-dihydro-5H-pyrrolo[1,2-c]imidazol-1-yl)-N-thiazol-2-yl-acetamide]

hepatocyte CLint at 1 μM ([1]; human): 1 µL/min/1e6 cells | hepatocyte CLint at 1 μM ([1]; mouse): 25 µL/min/1e6 cells | IC50 (EGFR^L858R): 0.016 µM | IC50 (EGFR^L858R/T790M): 0.008 µM | IC50 (EGFR WT [3]): 0.545 µM | IC50 (EGFR WT [7]): 0.577 µM
Compound: Cc1c(C#Cc2ccc(CN3CCC(CO)CC3)cc2)cc(C(F)F)c2cn(C(C(=O)Nc3nccs3)c3ncn4c3CCC43CC3)nc12 (stereo not shown) [Example 6]
changes in body weight [4]: No significant changes in body weight | changes in body weight [6]: No significant changes in body weight

Compound: O=C(Nc1nccs1)C(c1cc(F)ccc1O)N1Cc2ccc(-c3ccc(N4CCNCC4)cc3)cc2C1=O (stereo not shown) [JBJ-04-125-02, reference compound]
GI50 ([8]; 72 hours, first value of IC50/IC90): 0.03 µM | IC90 ([8]; read-out: Viability IC90 L858R/T790M/C797S, 72 hours, second value of IC50/IC90): 0.04 µM
